Results: US20050038118A1, “Treatment” (priority 2003, published 2005)

What was measured:
human Rhinovirus (HRV) [1] = assay: In vivo Study II: human volunteers pre-treated with CLA, intranasal human Rhinovirus challenge, Jackson Score
Method: The following protocol was used in all of Examples 4 to 10.
76 human volunteers suffering from the common cold were used in the study. 43 subjects were administered conjugated linoleic acid (CLA) and the other 33 subjects were given a placebo. The CLA used contained a 40:60 mixture of cis9, trans11: trans10, cis12 isomers.
The 43 subjects underwent pre-treatment with CLA at a level of 2 g/day for 4 weeks. 33 subjects underwent pre-treatment with placebo (HOSF; high oleic sunflower […]).
(§1) All subjects were inoculated at day 0 by intranasal exposure to human Rhinovirus (HRV) and the two groups were monitored daily for the next 5 days. The effects of the two types of treatment were determined by using the Jackson Score (validated in severity of symptoms) and the effects of the symptoms on its own on day 0-5.
Symptoms were assessed using a Jackson Score validated in severity from 0=absent to 3=very severe.

human Rhinovirus (HRV) [2] = assay: In vivo study: human volunteers pre-treated with CLA, intranasal human Rhinovirus challenge, Jackson Score; details: CLA 1.7 g/day for 4 weeks pre-treatment
Method: 45 human volunteers suffering from the common cold were used in the study. 21 subjects were administered conjugated linoleic acid (CLA) and the other 24 subjects were given a placebo.
The 21 subjects underwent pre-treatment with CLA at a level of 1.7 g/day for 4 weeks. 24 subjects underwent pre-treatment with placebo (HOSF; high oleic sunflower […]).
as §1
Symptoms were assessed using a Jackson Score validated in severity from 0=absent to 3=very severe. The following symptoms were rated:
The primary endpoint for the study was the frequency of clinical colds defined in accordance with the modified Jackson criteria.
Total symptoms of the individuals were checked in the morning (am) and in the afternoon (pm). The results of the test in the afternoon are shown in FIG. 2 and the results of the test in the morning are shown in FIG. 3; both plots are of Total Symptom Score against number of days. In FIGS. 2 and 3, results for the group of people treated with CLA are shown on the left in grey (Series 1) and for people given the placebo are shown on the right in dark grey (Series 2).
The symptoms assessed were sneezing, runny nose, obstruction, stuffiness, sore throat, cough, headache, malaise and chilliness. The total symptom score was determined by adding the scores for the symptoms during the 5 day period. FIG. 4 is a graph showing total symptom score and individual symptoms for the CLA group (light grey bars) and the placebo group (dark grey bars).

[3] = CLA 2 g/day for 4 weeks pre-treatment

How did the “reduction in Jackson cold severity versus placebo” value (human Rhinovirus (HRV) [1]; [3]) turn out when conjugated linoleic acid [CLA] was run?
The value was “about 12%”.

What about the “reduction in total Jackson score over 5 days versus placebo” value (human Rhinovirus (HRV) [1]; [3]) of the same substance?
The value was “about 7%”.

And the “average total Jackson score over 5 days” value (human Rhinovirus (HRV) [1]; CLA 2 g/day for 4 weeks pre-treatment, AM and PM, five days post inoculation, placebo 9.30)?
The value was 8.72.

What about the “total runny nose score in 5 days” value (human Rhinovirus (HRV) [1]; CLA 2 g/day for 4 weeks pre-treatment, ranking 1-3, AM and PM, five days, placebo 2.14) of the same substance?
Its value is 2.025.

What about the “total sneezing score in 5 days” value (human Rhinovirus (HRV) [1]; CLA 2 g/day for 4 weeks pre-treatment, ranking 1 to 3, AM and PM, five days, placebo 1.2) of the same substance?
Its value is 0.5.

And the “total sore throat score for 5 days” value (human Rhinovirus (HRV) [1]; CLA 2 g/day for 4 weeks pre-treatment, ranking 1 to 3, AM and PM, five days, placebo 3.1)?
Its value is 2.5.

And the “total symptom score over 5 days” value (human Rhinovirus (HRV) [1]; CLA 2 g/day for 4 weeks pre-treatment, sum of symptom scores during 5 day period, placebo 12.1)?
Its value is 11.3.

And the “Jackson cold severity, average score” value (human Rhinovirus (HRV) [1]; CLA 2 g/day for 4 weeks pre-treatment, total score (from 10), AM and PM, five days post inoculation, placebo 1.09)?
The value was 0.975.

What about the volunteers not infected (human Rhinovirus (HRV) [1]; CLA (40:60 cis9,trans11:trans10,cis12) 2 g/day for 4 weeks pre-treatment, all placebo volunteers infected) of the same substance?
The volunteers not infected was “Seven out of the 43”.

And the “severity of the common cold (Jackson Score) versus placebo” value (human Rhinovirus (HRV) [2]; at day 2 after HRV inoculation, FIG. 1)?
Its value is “lower”.

What about the “total symptom score (am and pm) versus placebo” value (human Rhinovirus (HRV) [2]; day 2 until the end of the study, FIGS. 2 and 3) of the same substance?
The value was “lower”.

What about the “severity of the symptoms assessed separately versus placebo” value (human Rhinovirus (HRV) [2]; scores added over 5 day period, FIG. 4) of the same substance?
The value was “very clearly lower”.
